Measured values as given in paper PMC5423648, “Acetyl group coordinated progression through the catalytic cycle of an arylalkylamine N-acetyltransferase” (PLoS ONE, 2017).

Target: T1, DAT (Drosophila melanogaster, UniProt Q94521)
T1 construct: gene speck; construct, tags and host of the DAT used for ITC not described
Test: ITC
Assay type: binding

T1 sequence (Q94521 36-275): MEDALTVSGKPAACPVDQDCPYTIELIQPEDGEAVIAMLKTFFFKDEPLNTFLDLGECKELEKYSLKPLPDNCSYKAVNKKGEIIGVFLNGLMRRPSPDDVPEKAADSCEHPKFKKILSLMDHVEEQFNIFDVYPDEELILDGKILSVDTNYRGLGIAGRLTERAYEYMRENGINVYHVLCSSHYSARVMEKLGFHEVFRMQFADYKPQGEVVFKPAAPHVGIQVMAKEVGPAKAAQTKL

- Kd: 3.7 ± 0.1 µM
SMILES: CC(=O)SCCNC(=O)CCNC(=O)[C@H](O)C(C)(C)COP(=O)(O)OP(=O)(O)OC[C@H]1O[C@@H](n2cnc3c(N)ncnc32)[C@H](O)[C@@H]1OP(=O)(O)O [acetyl-CoA]
